# Laboratory results: patent US7115658B2 (priority 2002, dated 2006)
# Molecular target: T1, Recombinant HCV polymerase (Hepatitis C virus genotype 1b, UniProt P26663)
# T1 construct: 2.5 pmoles (0.15 μg) HCV polymerase protein
# Experiment: HCV Polymerase Inhibition Assay
# Type: biochemical
# Details: primer/template-directed transcription, 30 minutes at 30° C.; category symbol
# In short: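 Recombinant genotype 1b polymerase (2.5 pmol) extended biotin-dG12 on poly(rC)300 with 1 μM GTP plus α-32P-GTP, pH 7.2, 30 min at 30 °C, 1% DMSO final; DE-filter-bound product counted. IC50 fitted from triplicate cpm, refitted with enzyme-concentration (30 nM) tight-binding equation when below 200 nM.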
# T1 sequence (P26663 2420-3010): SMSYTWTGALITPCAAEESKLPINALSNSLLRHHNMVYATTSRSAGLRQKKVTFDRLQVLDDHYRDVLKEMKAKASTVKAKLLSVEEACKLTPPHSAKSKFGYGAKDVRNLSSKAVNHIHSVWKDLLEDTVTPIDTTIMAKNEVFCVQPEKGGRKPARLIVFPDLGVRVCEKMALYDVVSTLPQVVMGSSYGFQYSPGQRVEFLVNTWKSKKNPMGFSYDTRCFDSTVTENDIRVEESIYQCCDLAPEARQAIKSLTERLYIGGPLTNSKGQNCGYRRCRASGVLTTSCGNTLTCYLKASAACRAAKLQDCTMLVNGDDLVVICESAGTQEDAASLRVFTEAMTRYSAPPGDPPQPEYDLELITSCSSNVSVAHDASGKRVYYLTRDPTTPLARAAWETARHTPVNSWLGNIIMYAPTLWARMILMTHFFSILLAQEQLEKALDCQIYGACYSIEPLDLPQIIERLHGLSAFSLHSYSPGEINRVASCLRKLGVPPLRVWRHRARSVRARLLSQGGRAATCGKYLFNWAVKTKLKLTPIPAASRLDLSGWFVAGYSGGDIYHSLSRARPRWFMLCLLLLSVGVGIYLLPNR
row,SMILES,IC50
1,"Cc1cc(SC2=C(O)CC(CCc3ccc(O)cc3)(C3CCCC3)OC2=O)c(C(C)(C)C)cc1CO (stereo not drawn) [Example 133, 3-(2-tert-butyl-4-hydroxymethyl-5-methyl-phenylsulfanyl)-6-cyclopentyl-4-hydroxy-6-[2-(4-hydroxy-phenyl)-ethyl]-5,6-dihydro-pyran-2-one]",< 1 µM
2,Cc1cc(SC2=C(O)CC(CCc3ccco3)(C(C)C)OC2=O)c(C(C)(C)C)cc1CO (stereo not drawn) [Example 134],1 to 10 µM
3,"Cc1cc(SC2=C(O)CC(CCc3ccc(O)cc3)(C3CCCCC3)OC2=O)c(C(C)(C)C)cc1OS(=O)(=O)c1ccccc1 (stereo not drawn) [Example 135, Benzenesulfonic acid 5-tert-butyl-4-{6-cyclohexyl-4-hydroxy-6-[2-(4-hydroxy-phenyl)-ethyl]-2-oxo-5,6-dihydro-2H-pyran-3-ylsulfanyl}-2-methyl-phenyl ester]",10 to 50 µM
4,"Cc1cc(SC2=C(O)CC(CCc3ccc(O)cc3)(C3CCCC3)OC2=O)c(C(C)(C)C)cc1N (stereo not drawn) [Example 136, 3-(4-Amino-2-tert-butyl-5-methyl-phenylsulfanyl)-6-cyclopentyl-4-hydroxy-6-[2-(4-hydroxy-phenyl)-ethyl]-5,6-dihydro-pyran-2-one]",< 1 µM
5,"Cc1ccc(S(=O)(=O)Oc2cc(C(C)(C)C)c(SC3=C(O)CC(CCc4ccc(O)cc4)(C4CCCCC4)OC3=O)cc2C)cc1 (stereo not drawn) [Example 137, Toluene-4-sulfonic acid 5-tert-butyl-4-(6-Cyclohexyl-4-hydroxy-6-[2-(4-hydroxy-phenyl)-ethyl]-2-oxo-5,6-dihydro-2H-pyran-3-ylsulfanyl)-2-methyl-phenyl ester]",10 to 50 µM
6,"Cc1cc(SC2=C(O)CC(CCc3cc(Cl)c(N)c(Cl)c3)(C(C)C)OC2=O)c(C(C)(C)C)cc1N (stereo not drawn) [Example 138, 3-(4-Amino-2-tert-butyl-5-methyl-phenylsulfanyl)-6-[2-(4-amino-3,5-dichloro-phenyl)-ethyl]-4-hydroxy-6-isopropyl-5,6-dihydro-pyran-2-one]",10 to 50 µM
7,"Cc1cc(SC2=C(O)CC(CCc3ccc(O)cc3)(C3CCCCC3)OC2=O)c(C(C)(C)C)cc1OS(=O)(=O)c1ccc(C#N)cc1 (stereo not drawn) [Example 139, 4-Cyano-benzenesulfonic acid 5-tert-butyl-4-{6-cyclohexyl-4-hydroxy-6-[2-(4-hydroxy-phenyl)-ethyl]-2-oxo-5,6-dihydro-2H-pyran-3-ylsulfanyl}-2-methyl-phenyl ester]",1 to 10 µM
8,"Cc1cc(SC2=C(O)CC(CCC(C)C)(C3CCCC3)OC2=O)c(C(C)(C)C)cc1CO (stereo not drawn) [Example 144, 3-(2-tert-butyl-4-hydroxymethyl-5-methyl-phenylsulfanyl)-6-cyclopentyl-4-hydroxy-6-(3-methyl-butyl)-5,6-dihydro-pyran-2-one]",> 50 µM
9,"Cc1cc(SC2=C(O)CC(CCC3CCCC3)(C3CCCC3)OC2=O)c(C(C)(C)C)cc1CO (stereo not drawn) [Example 145, 3-(2-tert-butyl-4-hydroxymethyl-5-methyl-phenylsulfanyl)-6-cyclopentyl-6-(2-cyclopentyl-ethyl)-4-hydroxy-5,6-dihydro-pyran-2-one]",10 to 50 µM
10,"Cc1cc(SC2=C(O)CC(CCc3ccc(O)cc3)(C3CCCC3)OC2=O)c(C(C)(C)C)cc1C(N)=O (stereo not drawn) [Example 146, 5-tert-butyl-4-{6-Cyclopentyl-4-hydroxy-6-[2-(4-hydroxy-phenyl)-ethyl]-2-oxo-5,6-dihydro-2H-pyran-3-ylsulfanyl}-2-methyl-benzamide]",1 to 10 µM
11,"O=C1C=C(O)CC(CCC2CCCC2)(C2CCCC2)O1 (stereo not drawn) [Example 150, 6-Cyclopentyl-6-(2-cyclopentyl-ethyl)-4-hydroxy-5,6-dihydro-pyran-2-one]",10 to 50 µM
12,"CC(C)CCC1(C2CCCC2)CC(O)=CC(=O)O1 (stereo not drawn) [Example 151, 6-Cyclopentyl-4-hydroxy-6-(3-methyl-butyl)-5,6-dihydro-pyran-2-one]",> 50 µM
13,"Cc1cc(SC2=C(O)C[C@@](CCc3cccc(O)c3)(C3CCCC3)OC2=O)c(C(C)(C)C)cc1CO [Example 152, (S)-3-(2-tert-butyl-4-hydroxymethyl-5-methyl-phenylsulfanyl)-6-cyclopentyl-4-hydroxy-6-[2-(3-hydroxy-phenyl)-ethyl]-5,6-dihydro-pyran-2-one]",1 to 10 µM
14,"Cc1cc(SC2=C(O)C[C@](CCc3cccc(O)c3)(C3CCCC3)OC2=O)c(C(C)(C)C)cc1CO [Example 153, (R)-3-(2-tert-butyl-4-hydroxymethyl-5-methyl-phenylsulfanyl)-6-cyclopentyl-4-hydroxy-6-[2-(3-hydroxy-phenyl)-ethyl]-5,6-dihydro-pyran-2-one]",< 1 µM
15,"Cc1cc(SC2=C(O)CC(CCc3ccc(O)cc3)(c3ccccc3)OC2=O)c(C(C)(C)C)cc1CO (stereo not drawn) [Example 154, 3-(2-tert-butyl-4-hydroxymethyl-5-methyl-phenylsulfanyl)-4-hydroxy-6-[2-(4-hydroxy-phenyl)-ethyl]-6-phenyl-5,6-dihydro-pyran-2-one]",> 50 µM
16,"O=C1O[C@](CCc2cccc(O)c2)(C2CCCC2)CC(O)=C1N(c1ccccc1)c1ccccc1 [Example 156, (S)-6-Cyclopentyl-3-diphenylamino-4-hydroxy-6-[2-(3-hydroxy-phenyl)-ethyl]-5,6-dihydro-pyran-2-one]",10 to 50 µM

row,SMILES,IC50
1,"CCCCN(C1=C(O)C[C@@](CCc2cccc(O)c2)(C2CCCC2)OC1=O)c1ccccc1 [Example 157, (S)-3-(butyl-phenyl-amino)-6-Cyclopentyl-4-hydroxy-6-[2-(3-hydroxy-phenyl)-ethyl]-5,6-dihydro-pyran-2-one]",1 to 10 µM
2,"COc1cccc(CC2C(=O)CC(CCc3ccc(OC)cc3OC)(C3CCCC3)OC2=O)c1 (stereo not drawn) [Example 162, 6-Cyclopentyl-6-[2-(2,4-dimethoxy-phenyl)-ethyl]-3-(3-methoxy-benzyl)-dihydro-pyran-2,4-dione]",1 to 10 µM
3,"COc1ccc(CCC2(C3CCCC3)CC(=O)C(Oc3ccccc3)C(=O)O2)c(OC)c1 (stereo not drawn) [Example 163, 6-Cyclopentyl-6-[2-(2,4-dimethoxy-phenyl)-ethyl]-3-phenoxy-dihydro-pyran-2,4-dione]",10 to 50 µM
4,"COc1ccc(CCC2(C3CCCC3)CC(=O)C(Oc3ccc(Cl)cc3)C(=O)O2)c(OC)c1 (stereo not drawn) [Example 164, 3-(4-Chloro-phenoxy)-6-cyclopentyl-6-[2-(2,4-dimethoxy-phenyl)-ethyl]-dihydro-pyran-2,4-dione]",10 to 50 µM
5,"COc1ccc(CCC2(C3CCCC3)CC(=O)C(C(C)=O)C(=O)O2)c(OC)c1 (stereo not drawn) [Example 166, 3-Acetyl-6-cyclopentyl-6-[2-(2,4-dimethoxy-phenyl)-ethyl]-dihydro-pyran-2,4-dione]",10 to 50 µM
6,"CC(=O)C1C(=O)CC(CCc2cccc(Cl)c2)(C2CCCC2)OC1=O (stereo not drawn) [Example 167, 3-Acetyl-6-[2-(3-chloro-phenyl)-ethyl]-6-cyclopentyl-dihydro-pyran-2,4-dione]",10 to 50 µM
7,"COc1ccc(CCC2(C3CCCC3)CC(=O)C(C(C)=O)C(=O)O2)cc1 (stereo not drawn) [Example 168, 3-Acetyl-6-cyclopentyl-6-[2-(4-methoxy-phenyl)-ethyl]-dihydro-pyran-2,4-dione]",10 to 50 µM
8,"COc1ccc(CCC2(C3CCCC3)CC(=O)C(C(=O)Cc3ccccc3)C(=O)O2)c(OC)c1 (stereo not drawn) [Example 169, 6-Cyclopentyl-6-[2-(2,4-dimethoxy-phenyl)-ethyl]-3-phenylacetyl-dihydro-pyran-2,4-dione]",10 to 50 µM
9,"O=C(Cc1ccccc1)C1C(=O)CC(CCc2cccc(Cl)c2)(C2CCCC2)OC1=O (stereo not drawn) [Example 170, 6-[2-(3-Chloro-phenyl)-ethyl]-6-cyclopentyl-3-phenylacetyl-dihydro-pyran-2,4-dione]",10 to 50 µM
10,"COc1ccc(CCC2(C3CCCC3)CC(=O)C(C(=O)Cc3ccccc3)C(=O)O2)cc1 (stereo not drawn) [Example 171, 6-Cyclopentyl-6-[2-(4-methoxy-phenyl)-ethyl]-3-phenylacetyl-dihydro-pyran-2,4-dione]",10 to 50 µM
11,"COc1ccc(CCC2(C3CCCC3)CC(=O)C(C(=O)Cc3cccnc3)C(=O)O2)c(OC)c1 (stereo not drawn) [Example 172, 6-Cyclopentyl-6-[2-(2,4-dimethoxy-phenyl)-ethyl]-3-(2-pyridin-3-yl-acetyl)-dihydro-pyran-2,4-dione]",1 to 10 µM
12,"COc1ccc(CCC2(C3CCCC3)CC(=O)C(C(=O)Cc3cccnc3)C(=O)O2)cc1 (stereo not drawn) [Example 173, 6-Cyclopentyl-6-[2-(4-methoxy-phenyl)-ethyl]-3-(2-pyridin-3-yl-acetyl)-dihydro-pyran-2,4-dione]",1 to 10 µM
13,"O=C(Cc1cccnc1)C1C(=O)CC(CCc2cccc(Cl)c2)(C2CCCC2)OC1=O (stereo not drawn) [Example 174, 6-[2-(3-Chloro-phenyl)-ethyl]-6-cyclopentyl-3-(2-pyridin-3-yl-acetyl)-dihydro-pyran-2,4-dione]",1 to 10 µM
14,"COc1ccc(CCC2(C3CCCC3)CC(=O)C(C(=O)c3ccccc3)C(=O)O2)c(OC)c1 (stereo not drawn) [Example 175, 3-Benzoyl-6-cyclopentyl-6-[2-(2,4-dimethoxy-phenyl)-ethyl]-dihydro-pyran-2,4-dione]",10 to 50 µM
15,"CC(C)(C)c1cc2nc(N)sc2cc1SC1=C(O)CC(C2CCCC2)(C2CCCC2)OC1=O [Example 183, 3-(2-Amino-5-tert-butyl-benzothiazol-6-ylsulfanyl)-6,6-dicyclopentyl-4-hydroxy-5,6-dihydro-pyran-2-one]",10 to 50 µM

# Same assay, conditions: primer/template-directed transcription, 30 minutes at 30° C.; read-out: IC50(μM) Category
row,SMILES,IC50
1,"COc1ccc(CCC2(C3CCCC3)CC(=O)C(Cc3ccccc3)C(=O)O2)cc1Cl (stereo not drawn) [Example 178, 3-Benzyl-6-[2-(3-chloro-4-methoxy-phenyl)-ethyl]-6-cyclopentyl-dihydro-pyran-2,4-dione]",0.6 µM

# System: not given
# Experiment: not given
# Details: not given
row,melting point,SMILES
1,90 to 92 °C,CCN(C1=C(O)C[C@@](CCc2ccc(O)cc2)(C2CCCC2)OC1=O)c1ccccc1 [Example 158]
